Test system: UM16 cell line
Test: Nascent RNA sequencing (Bru-seq), gene fold change
Assay type: cell-based
Details: 5 μM, 4 hours
Source text: Consistent with this observation, there are also massive metabolite pathways influenced including starch and sucrose metabolism, glycolysis and gluconeogenesis, purine metabolism, pyrimidine metabolism, N-glycan biosynthesis, etc.

## CCOC(=O)[C@@H]1CCCN(S(=O)(=O)c2ccc(S(=O)(=O)N(CC)CC)cc2)C1 [DX2-201, ethyl (R)-1-((4-(N,N-diethylsulfamoyl)phenyl)sulfonyl)piperidine-3-carboxylate]
non-coding RNA, downregulated
  Fold change AC008521.2: 0.1876
  Fold change AC019257.2: 0.2345
  Fold change AC091133.4: 0.2345
  Fold change AC092916.2: 0.1706
  Fold change AC106037.1: 0.2345
  Fold change AL096870.2: 0.02465
  Fold change BX679664.2: 0.1876
  Fold change C1orf50: 0.1876
  Fold change MIR545: 0.1876
  Fold change MIR5000: 0.05752
  Fold change RN7SL128P: 0.1876
  Fold change RN7SL388P: 0.2085
  Fold change RN7SL589P: 0.2165
  Fold change RN7SL833P: 0.2345
  Fold change RNU1-19P: 0.1564
  Fold change RNU1-73P: 0.09381
  Fold change RNU6-122P: 0.04314
  Fold change RNU6-398P: 0.03451
  Fold change RNU6-519P: 0.1564
  Fold change RNU6-548P: 0.05752
  Fold change SNORA73: 0.2345
  Fold change TERC: 0.04314
  Fold change Y_RNA: 0.02876
  Fold change Z99127.3: 0.1876
  Fold change ZBTB40-IT1: 0.2345
non-coding RNA, upregulated
  Fold change AC007686.1: 2.01
  Fold change AC007952.4: 2.345
  Fold change AC008687.3: 2.033
  Fold change AC034198.2: 2.345
  Fold change AC105020.4: 1.782
  Fold change AC139887.1: 2.064
  Fold change AL136982.3: 2.217
  Fold change AL161729.3: 1.993
  Fold change AL627171.1: 1.841
  Fold change AL645939.5: 1.876
  Fold change AP001527.2: 2.217
  Fold change AP001619.1: 1.62
  Fold change AP003168.2: 1.689
  Fold change DPRXP4: 3.19
  Fold change EIF5AP3: 1.876
  Fold change HMGN1P15: 2.111
  Fold change RNA5SP379: 2.814
  Fold change RNU6-182P: 20.4
  Fold change RNU6-396P: 1.876
  Fold change RNU6-531P: 2.814
  Fold change RNU6-564P: 2.814
  Fold change RNU6-1272P: 25.5
  Fold change RNY3P2: 1.876
  Fold change SNORD124: 1.876
  Fold change Y_RNA: 15.3
protein-coding, downregulated
  Fold change A2ML1: 0.582
  Fold change ARRDC4: 0.4315
  Fold change BDKRB2: 0.6044
  Fold change DGAT2: 0.5129
  Fold change DPAGT1: 0.6034
  Fold change FAM86C1: 0.6053
  Fold change FAM86HP: 0.5946
  Fold change FAM200A: 0.5595
  Fold change FOXA2: 0.6075
  Fold change G0S2: 0.4666
  Fold change GGCT: 0.6012
  Fold change HLF: 0.4727
  Fold change INTS5: 0.4515
  Fold change L3HYPDH: 0.6301
  Fold change PCED1A: 0.576
  Fold change PLLP: 0.5843
  Fold change POLR2J4: 0.4775
  Fold change RRS1: 0.5686
  Fold change SCARNA5: 0.4376
  Fold change SLC5A6: 0.6234
  Fold change SNHG21: 0.5497
  Fold change SNORA62: 0.5968
  Fold change SNORA71C: 0.6023
  Fold change TMED1: 0.6232
  Fold change TXNIP: 0.4997
protein-coding, upregulated
  Fold change ANKRD37: 2.182
  Fold change ARG2: 2.569
